Consider 2 compounds from EP0434057B1, “Indolocarbazole derivatives, processes for their preparation and their use” (GÖDECKE AKTIENGESELLSCHAFT, priority 1989, dated 1991).

One assay deals with Proteinkinase C (PKC). As to the kind of experiment: Enzyme assay: inhibition of protein kinase C activated with phosphatidylserine and diacylglycerol (according to EP-A-0 255 126). Format: biochemical.
Assay [1] addresses T1, cGMP-abhängigen Proteinkinase (G-Kinase) (Bos taurus, UniProt P00516).
T1 sequence (P00516 2-671): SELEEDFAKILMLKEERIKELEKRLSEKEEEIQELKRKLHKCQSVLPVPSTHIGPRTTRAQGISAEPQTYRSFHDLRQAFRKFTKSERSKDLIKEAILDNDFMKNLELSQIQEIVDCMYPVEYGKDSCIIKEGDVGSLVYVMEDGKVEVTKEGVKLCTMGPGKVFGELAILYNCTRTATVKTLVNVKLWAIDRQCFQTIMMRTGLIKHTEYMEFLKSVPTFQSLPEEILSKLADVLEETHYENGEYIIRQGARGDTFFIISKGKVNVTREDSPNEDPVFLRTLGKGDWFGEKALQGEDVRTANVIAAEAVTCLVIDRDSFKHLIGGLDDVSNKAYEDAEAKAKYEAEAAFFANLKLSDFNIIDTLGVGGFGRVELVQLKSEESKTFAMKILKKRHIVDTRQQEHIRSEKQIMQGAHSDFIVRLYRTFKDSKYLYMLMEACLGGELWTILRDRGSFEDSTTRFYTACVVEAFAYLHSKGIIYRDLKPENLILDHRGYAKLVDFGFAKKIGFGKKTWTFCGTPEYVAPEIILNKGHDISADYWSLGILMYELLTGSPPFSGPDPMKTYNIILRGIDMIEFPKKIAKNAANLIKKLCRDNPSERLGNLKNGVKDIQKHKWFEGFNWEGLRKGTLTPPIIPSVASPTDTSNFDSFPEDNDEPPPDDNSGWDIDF
In words: Inhibition of cGMP-dependent protein kinase (literature method). It is filed as biochemical. To be noted: read-out: Inhibierung von Proteinkinasen (IC50, µM) G-Kinase. An excerpt:
(§1) Die Bestimmung der Inhibierung von A-, G-, MLC- oder T-Kinase erfolgte nach den in der Literatur beschriebenen Verfahren (Gill, G.N., Walton M., Advances in cyclic nucleotide research, Vol. 10, herausgegeben von G. Brooker und G.A. Robinson, Raven Press, New York, 1979; Eur. J. Biochem. 1986, 158, 203; Biochem. J. 1984, 218, 863; Analyt. Biochem. 1983, 135, 37; Mol. Immunol. 1989, 26, 897).

Assay [2] addresses Myosin Light Chain Kinase (MLC-Kinase) (Gallus gallus, UniProt P11799). In words: Inhibition of myosin light chain kinase (literature method). Format: biochemical. To be noted: read-out: Inhibierung von Proteinkinasen (IC50, µM) MLC-Kinase.
Text: as §1

The target of assay [3] is tyrosinspezifischen Kinase (T-Kinase). As to the kind of experiment: Inhibition of tyrosine-specific kinase (literature method). It is filed as biochemical. To be noted: read-out: Inhibierung von Proteinkinasen (IC50, µM) T-Kinase.
Text: as §1

Assay [4] has the same target. To be noted: read-out: Inhibierung von Proteinkinasen (IC50, µM) T-Kinase; value marked *: J. Antibiot. 1987, 40, 1782; cited from earlier work.

Where two headings read alike, the source gives them in different places.

Myosin Light Chain Kinase (MLC-Kinase), sequence (P11799 935-1906): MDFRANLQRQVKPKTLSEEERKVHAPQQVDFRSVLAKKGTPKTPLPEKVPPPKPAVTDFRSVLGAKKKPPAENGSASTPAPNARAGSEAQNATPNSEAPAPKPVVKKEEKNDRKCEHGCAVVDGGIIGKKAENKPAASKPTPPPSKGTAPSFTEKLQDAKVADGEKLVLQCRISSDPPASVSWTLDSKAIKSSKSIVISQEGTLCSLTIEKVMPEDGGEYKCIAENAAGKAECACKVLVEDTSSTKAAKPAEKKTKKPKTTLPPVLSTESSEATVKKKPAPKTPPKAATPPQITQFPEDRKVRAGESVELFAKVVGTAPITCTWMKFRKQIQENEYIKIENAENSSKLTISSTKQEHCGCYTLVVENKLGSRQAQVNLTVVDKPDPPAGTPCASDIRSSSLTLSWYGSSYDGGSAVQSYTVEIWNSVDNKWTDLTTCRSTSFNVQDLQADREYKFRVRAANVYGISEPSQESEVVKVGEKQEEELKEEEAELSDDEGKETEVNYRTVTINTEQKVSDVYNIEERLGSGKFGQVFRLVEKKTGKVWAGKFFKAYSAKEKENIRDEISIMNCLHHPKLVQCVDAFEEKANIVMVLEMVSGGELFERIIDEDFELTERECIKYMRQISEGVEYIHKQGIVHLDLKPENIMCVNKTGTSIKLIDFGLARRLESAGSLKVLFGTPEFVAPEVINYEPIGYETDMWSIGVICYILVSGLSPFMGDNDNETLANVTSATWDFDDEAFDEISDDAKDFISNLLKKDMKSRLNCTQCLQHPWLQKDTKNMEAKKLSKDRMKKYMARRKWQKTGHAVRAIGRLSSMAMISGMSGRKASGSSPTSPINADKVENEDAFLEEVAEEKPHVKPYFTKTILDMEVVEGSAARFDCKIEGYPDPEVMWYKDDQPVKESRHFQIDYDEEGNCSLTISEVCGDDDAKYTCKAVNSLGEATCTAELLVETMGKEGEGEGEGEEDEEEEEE

`Cn1c2ccccc2c2c3c(c4c5ccccc5n(CCC#N)c4c21)CNC3=O` [Beispiel 2, 12-(2-Cyanoethyl)-6,7,12,13-tetrahydro-13-methyl-5-oxo-5H-indolo[2,3-a]pyrrolo[3,4-c]carbazol]: the IC50 on Proteinkinase C (PKC) (PKC activated with Phosphatidylserin and Diacylglycerol, read-out: 50%ige Inhibierung bei einer Konzentration von) turned out to be 0.02 µM; at Proteinkinase C (PKC) (read-out: Inhibierung von Proteinkinasen (IC50, µM) PKC), 0.02 µM; in assay [1], 6.2 µM; in assay [2], 5.8 µM; in assay [3], 25 µM.
Consider `CN[C@@H]1C[C@H]2O[C@@](C)([C@@H]1OC)n1c3ccccc3c3c4c(c5c6ccccc6n2c5c31)C(=O)NC4` [Staurosporin], for which, in assay [4], the IC50 was 0.006 µM.
